Laboratory results reported in patent US8648111B2, “N1-2-thiophene-2-ylethyl-N2-substituted biguanide derivate, preparation method thereof, and pharmaceutical composition containing the same as active ingredients” (Hanall Biopharma Co., Ltd., priority 2008, dated 2014).
Where two headings read alike, the source gives them in different places.

Experiments:
Format in all cases: cell-based
[1] = system: HepG2 cells; experiment: Measurement of triglyceride (triglyceride content in cell lysates, Amplex red)
Procedure: (§1) 2 mM metformin was used as a comparative compound for each of the plates (control group).
HepG2 cells (ATCC: American Type Culture Collection) were cultured in 1% serum-containing media (DMEM (Gibco), FBS (Gibco)) for 24 hours, and then treated with 100 μM or 500 μM of each of the compounds prepared in Examples for 24 hours. Then, the cells were disrupted with a lysis solution (0.1 M potassium phosphate, pH 7.4, 0.05 M NaCl, 5 mM cholic acid, 0.1% Triton X-100). […] After completion of the reaction, the content of triglyceride formed in the cell lysates was measured at a wavelength of 560/590 nm (ex/em) using a fluorescence microscope.
A lower measurement value means an increased triglyceride synthesis inhibitory ability.

[2] = system: HepG2 cells; experiment: Measurement of cholesterol synthesis inhibitory ability (cholesterol content in cell lysates, Amplex red)
Procedure: as §1
A cholesterol synthesis inhibitory ability, which is an important function of AMPK (AMP-activated protein kinase), was measured using HepG2 cells (ATCC: American Type Culture Collection) as a hepatic cell model according to the following procedure.
The hepatic cell model HepG2 cells were cultured in 1% serum-containing media (DMEM (Gibco), FBS (Gibco)) for 24 hours, and then treated with 100 μM or 500 μM of each of the compounds prepared in Examples for 24 hours. Then, the cells were disrupted with a lysis solution (0.1 M potassium phosphate, pH 7.4, 0.05 M NaCl, 5 mM cholic acid, 0.1% Triton X-100 (Sigma)). To the disrupted cells was added the same volume of a reaction solution (2 U/mL of a cholesterol oxidizing agent, 2 U/mL of a peroxidase, 0.2 U/mL of a cholesterol esterase, and 300 μM of Amplex red as a fluorescent factor (Molecular Probe)), which was allowed to react at 37° C. for 30 minutes. After completion of the reaction, the content of cholesterol formed in the cell lysates was measured at a wavelength of 560/590 nm (ex/em) using a fluorescence microscope.
A lower measurement value means an increased cholesterol synthesis inhibitory ability.

[3] = system: HepG2 cells; experiment: Measurement of gluconeogenesis inhibitory ability (14C-lactate, glucose formed in cells)
Procedure: as §1
HepG2 cells (ATCC: American Type Culture Collection) were cultured in 10% serum-containing high glucose media, transferred to no serum-containing low glucose media (DMEM (Gibco), FBS (Gibco)), and then treated with 100 μM of each of the compounds for 24 hours. Then, the cells were treated with 0.5 μCi ^14C-lactate (Amersham Pharmacia) and 10 mM L-lactate (Sigma), and cultured for 4 hours. After cultivation, the media were removed therefrom, and the cells were washed with PBS, treated with 0.1N NaOH and kept at room temperature for 1 hour. Then, the cells were neutralized with 1N HCl, and the content of glucose formed in the cells was measured with a liquid scintillation counter.
A lower measurement value means an increased gluconeogenesis inhibitory ability.

[4] = system: C2C12 cells; experiment: Measurement of glucose absorption ability (3H-deoxy-glucose uptake with insulin); details: 100 uM compound with 1 μM insulin, 24 hours, differentiated C2C12, higher value = stronger, more than 200% counts as glucose absorption ability
Procedure: as §1
C2C12 cells (ATCC: American Type Culture Collection), a muscle cell model, were induced to differentiate into muscle cells in 2% bovine fetal serum-containing media (DMEM (Gibco), FBS (Gibco)) for 6 days. The C2C12 cells which differentiated into muscle cells were transferred to serum-free low glucose media (DMEM (Gibco), FBS (Gibco)), treated with 100 μM of each of the compounds, and then cultured with 1 μM of insulin for 24 hours. After cultivation, the cells were treated with 1 μCi ^3H-deoxy-glucose (Amersham Pharmacia) and 10 μM deoxy-glucose (Sigma) at 37° C. for 15 minutes. The media were removed therefrom, and the cells were washed twice with PBS (phosphate buffered saline). The washed cells were treated with 0.1N NaOH and neutralized with 1N HCl. The content of glucose absorbed into the cells was measured with a liquid scintillation counter.
A higher measurement value means a stronger ability to reduce insulin resistance.

[5] = 100 uM compound, 24 hours, HepG2, lower value = stronger triglyceride synthesis inhibition
[6] = 500 uM compound, 24 hours, HepG2, lower value = stronger triglyceride synthesis inhibition
[7] = 100 uM compound, 24 hours, HepG2, lower value = stronger cholesterol synthesis inhibition
[8] = 500 uM compound, 24 hours, HepG2, lower value = stronger cholesterol synthesis inhibition
[9] = 100 uM compound, 24 hours, HepG2, lower value = stronger gluconeogenesis inhibition

Structure (SMILES) | Triglyceride (100 uM) Aver. [1, 5] | Triglyceride (500 uM) Aver. [1, 6] | Cholesterol (100 uM) Aver. [2, 7] | Cholesterol (500 uM) Aver. [2, 8] | Gluconeogenesis inhibition (100 uM) Aver. [3, 9] | Glucose absorption (100 uM) Aver. [4] | other results
Cl.N=C(N)NC(=Nc1cccc(C(F)(F)F)c1)NCCc1cccs1 [Example 14, N1-2-(thiophen-2-ylethyl)-N2-(3-trifluoromethyl)phenyl biguanide hydrochloride] | 11.8 | 13.2 | 23.3 | 41.4 | 8.75 | 4.38% | 
CC(C)(C)c1ccc(N=C(NCCc2cccs2)NC(=N)N)cc1.Cl [Example 28, N1-2-(thiophen-2-ylethyl)-N2-(4-t-butylphenyl) biguanide hydrochloride] | 15.55 | 15.21 | 27.49 | 26.60 | 2.57 | 4.29% | 
Cc1ccc(N=C(NCCc2cccs2)NC(=N)N)cc1.Cl [Example 19, N1-2-(thiophen-2-ylethyl)-N2-(4-methylphenyl) biguanide hydrochloride] | 67.7 | 46.4 | 52.9 | 29.6 | 74.32 | 89.16% | 
Cc1ccc(CN=C(NCCc2cccs2)NC(=N)N)cc1.Cl [Example 40, N1-2-(thiophen-2-ylethyl)-N2-(4-methylbenzyl) biguanide hydrochloride] |  |  |  |  |  | 75.38% | Triglyceride (100 uM) Aver. [1]: 84.73; Triglyceride (500 uM) Aver. [1]: 60.37; Cholesterol (100 uM) Aver. [2]: 72.58; Cholesterol (500 uM) Aver. [2]: 57.11; Gluconeogenesis inhibition (100 uM) Aver. [3]: 81.23
Cl.N=C(N)NC(=Nc1ccccc1)NCCc1cccs1 [Example 20, N1-2-(thiophen-2-ylethyl)-N2-phenyl biguanide hydrochloride] | 67.5 | 57.6 | 45.7 | 18.3 | 87.36 | 125.4% | 
COc1ccc(N=C(NCCc2cccs2)NC(=N)N)cc1.Cl [Example 30, N1-2-(thiophen-2-ylethyl)-N2-(4-methoxyphenyl) biguanide hydrochloride (isomer)] | 91.91 | 48.42 | 73.64 | 26.15 |  | 148.42% | Gluconeogenesis inhibition (100 uM) Aver. ([3]; 100 uM compound, 24 hours, HepG2, lower value = stronger gluconeogenesis inhibition, 100 µM): 105.18
CC(C)CN=C(NCCc1cccs1)NC(=N)N.Cl [Example 42, -2-(thiophen-2-ylethyl)-N2-isobutyl biguanide hydrochloride] | 97.66 | 88.50 | 89.11 | 73.15 | 99.91 | 171.92% | 
CCc1ccccc1N=C(NCCc1cccs1)NC(=N)N.Cl [Example 9, N1-2-(thiophen-2-ylethyl)-N2-2-ethylphenyl biguanide hydrochloride] | 74.99 | 19.51 | 39.25 | 7.55 | 74.23 | 252.6% | 
CN=C(NCCc1sccc1C)NC(=N)N.Cl [Example 45, N1-2-(3-methylthiophen-2-ylethyl)-N2-methyl biguanide hydrochloride] | 92.38 | 89.00 | 77.03 | 63.78 | 94.51 | 264.76% | 
Cl.N=C(N)NC(=Nc1ccc(F)cc1)NCCc1cccs1 [Example 18, N1-2-(thiophen-2-ylethyl)-N2-(4-fluorophenyl) biguanide hydrochloride] | 67.0 | 39.5 | 50.3 | 23.4 | 86.69 | 88.16% | 
Cl.N=C(N)NC(=Nc1cccc(Br)c1)NCCc1cccs1 [Example 34, N1-2-(thiophen-2-ylethyl)-N2-(3-bromophenyl) biguanide hydrochloride] | 26.57 | 19.49 | 26.00 | 32.53 | 4.96 | 6.05% | 
COc1cc(N=C(NCCc2cccs2)NC(=N)N)cc(OC)c1OC.Cl [Example 17, N1-2-(thiophen-2-ylethyl)-N2-(3,4,5-trimethoxy)phenyl biguanide hydrochloride] | 86.2 | 79.4 | 87.2 | 57.5 | 95.56 | 165.2% | 
COc1ccc(N=C(NCCc2cccs2)NC(=N)N)cc1.Cl [Example 15, N1-2-(thiophen-2-ylethyl)-N2-(4-methoxy)phenyl biguanide hydrochloride] |  |  |  |  |  |  | Triglyceride (100 uM) Aver. ([1]; 100 uM compound, 24 hours, HepG2, lower value = stronger triglyceride synthesis inhibition, hydrochloride): 76.6; Triglyceride (500 uM) Aver. ([1]; 500 uM compound, 24 hours, HepG2, lower value = stronger triglyceride synthesis inhibition, hydrochloride): 41.4; Cholesterol (100 uM) Aver. ([2]; 100 uM compound, 24 hours, HepG2, lower value = stronger cholesterol synthesis inhibition, hydrochloride): 67.3; Cholesterol (500 uM) Aver. ([2]; 500 uM compound, 24 hours, HepG2, lower value = stronger cholesterol synthesis inhibition, hydrochloride): 39.7; Gluconeogenesis inhibition (100 uM) Aver. ([3]; 100 uM compound, 24 hours, HepG2, lower value = stronger gluconeogenesis inhibition, hydrochloride, 100 µM): 86.69; Glucose absorption (100 uM) Aver. ([4]; hydrochloride): 124.3%
COc1ccc(CN=C(NCCc2cccs2)NC(=N)N)cc1.Cl [Example 38, N1-2-(thiophen-2-ylethyl)-N2-(4-methoxybenzyl) biguanide hydrochloride] | 100.89 | 84.10 | 80.35 | 44.72 | 120.13 | 195.22% | 
Cl.N=C(N)NC(=Nc1cc(Cl)cc(Cl)c1)NCCc1cccs1 [Example 39, N1-2-(thiophen-2-ylethyl)-N2-(3,5-dichlorophenyl) biguanide hydrochloride] | 73.50 | 72.66 | 69.65 | 61.03 | 13.04 | 188.26% | 
